Reference: US20210205638A1, “PARATHYROID HORMONE AND REGENERATION OF DEGENERATIVE DISCS DISEASE” (THE JOHNS HOPKINS UNIVERSITY, priority 2017, published 2021)

What was measured:
NP cells [1] = assay: Western blot of pCREB in cultured NP cells; type: cell-based, mouse
Description: (§1) Green fluorescent protein (GFP) labeled NP cells of notochordal origin were isolated from 15-day old Noto^Cre/+::ROSA26-lacZ^flox/flox male mice as previously described. The NP cells from 15-day old PTH1R^+/+ and PTH1R^−/−, IFT88^+/+ and IFT88^−/− male mice. Briefly, the cells were isolated from the NP region of IVDs in the spinal column from mid thoracic to lower lumbar region and digested initially with TrypLE Express (Gibco) for 30 minutes on shaker, followed by 0.25 mg/ml Collagense-P (Roche) for another […] at 37° C. The digested cells were washed twice with PBS, and cultured in α-MEM (Gibco) supplemented with 10% fetal calf serum (Atlanta Biologicals), and 1% penicillin—streptomycin (Mediatech) to 80-90% confluence at 37° C., 5% CO2 and 5% O2.
(§2) Western blot analyses were conducted on the protein lysates from in vitro cultured NP cells or NP tissues from mice at specific time points after PTH (1-34) treatment and human at different ages with lumbar disc degeneration. The protein extract was centrifuged, the concentration of supernatant evaluated by DC protein assay (Bio-Rad Laboratories), and then separated by SDS-PAGE and blotted on a polyvinylidene fluoride membrane (Bio-Rad Laboratories). Following incubation in specific antibodies, we detected proteins using an enhanced chemiluminescence kit (Amersham Biosciences). […]

18-month-old mice = assay: iPTH in aged mice: PPCT of IVD and L4 trabecular bone; type: in vivo, mouse; details: for IVD morphology: aged mice
Description: For the dosage screening experiments, 17 month old male C57BL/6J WT mice were assigned into four groups treated with different doses of PTH or vehicle; 20 μg/kg/d, 40 μg/kg/d and 80 μg/kg/d of human PTH (1-34) (Bachem Calif., Inc. King of Prussia, Pa., USA.) or vehicle groups. We chose the optimal dosage of PTH (1-34) for the rest of the experiment.
Propagation phase contrast micro-tomography (PPCT) based on the Synchrotron radiation scanning was performed at the BL13W1 biomedical beamline in the Shanghai Synchrotron Radiation Facility (SSRF) in China (FIG. 7A). To obtain high X-ray attenuation contrast images, the monochromatic X-ray energy was adjusted to 15 keV, the scanner was set at a voltage of 15 keV, exposure time set to 2.5 s, and the sample-to-detector distance (SDD) adjusted to 30 cm and a resolution of 3.7 μm per pixel. The images were reconstructed and analyzed using the GPU-CT-Reconstruction software (applied by the BL13W1 experimental station) and the VG Studio Max 3D software (version 2.1, Volume Graphics GmbH, Germany) respectively. The region of interest was defined to cover the whole L3-L4 compartment. The 3D quantitative analysis of IVDs was performed with the commercially available Image Pro Analyzer 3D software (Version 7.0, Media Cybernetics, Inc., USA). The 3D structural parameters analyzed for the mean height and volume and thickness distribution of IVDs. The trabecular bone of L4 was segmented from the bone marrow and analyzed to determine the trabecular bone volume fraction (BV/TV), trabecular thickness (Tb. Th), trabecular number (Tb. N) and trabecular separation (Tb. Sp).

integrin β6 = assay: Western blot of integrin β6 in NP cells at time points after PTH; type: cell-based, mouse; details: PTH1-34 100 nM, time dependent manner
Description: Western blot analyses were conducted on the protein lysates from in vitro cultured NP cells or NP tissues from mice at specific time points after PTH (1-34) treatment and human at different ages with lumbar disc degeneration. The protein extract was centrifuged, the concentration of supernatant evaluated by DC protein assay (Bio-Rad Laboratories), and then separated by SDS-PAGE and blotted on a polyvinylidene fluoride membrane (Bio-Rad Laboratories). Following incubation in specific antibodies, we detected proteins using an enhanced chemiluminescence kit (Amersham Biosciences). We used specific antibodies recognizing rabbit CTGF (CCN2) (Abcam, 1:1000), Aggrecan (ACAN) (Abcan, 1:1000), p-Smad2 (Cell Signaling Technology Inc., 1:1000), Smad2 (Cell Signaling Technology Inc., 1:1000), GAPDH (Cell Signaling Technology Inc., 1:1000), CREB (Abcam, 1:2500), pCREB (Abcam, 1:2500), PTH1R PRB-635P (Covance, 1:100), PTH1R PRB-640P (Covance, 1:500) and goat integrin β6 (Santa Cruz, 1:500) to examine the protein concentrations in the lysates. Co-immunoprecipitation analyses were conducted on the nuclear and cytoplasmic protein extraction using NE-PER Nuclear and Cytoplasmic Extraction Kit (Pierce Thermo Scientific, 78833) from in vitro cultured NP cells treated with PTH (1-34) or vehicle.

NP cells [2] = assay: Western blot of pCREB in NP cells of IFT88-/- or IFT88+/+ mice; type: cell-based, mouse
Description: as §1, §2

NP cells [3] = assay: cAMP assay in NP cells (enzyme immunoassay); type: cell-based, mouse; details: PTH (1-34) 100 nmol
Description: as §1
For cAMP assays, confluent cells were grown in 35-mm six-well plates starved overnight by incubation in serum-free α-MEM at 37° C. The cells were then treated with 100 nM human of human PTH (1-34; Bachem Calif., Inc.) for 1 h. Cellular cAMP was extracted and the concentration measured with the Biotrak enzyme immunoassay system (GE Healthare, Inc., Princeton, HJ). We determined the concentration of total and active TGF-β in the NP tissue using the ELISA Development Kit (R&D Systems) according to the manufacturer's instructions.

[4] = 18-month-old mice relative to vehicle, 40 μg/kg
[5] = 18-month-old mice, L4 trabecular bone

Structure (SMILES): CC[C@H](C)[C@H](NC(=O)[C@H](CCC(=O)O)NC(=O)[C@H](CO)NC(=O)[C@@H](NC(=O)[C@@H](N)CO)C(C)C)C(=O)N[C@@H](CCC(N)=O)C(=O)N[C@@H](CC(C)C)C(=O)N[C@@H](CCSC)C(=O)N[C@@H](Cc1cnc[nH]1)C(=O)N[C@@H](CC(N)=O)C(=O)N[C@@H](CC(C)C)C(=O)NCC(=O)N[C@@H](CCCCN)C(=O)N[C@@H](Cc1cnc[nH]1)C(=O)N[C@@H](CC(C)C)C(=O)N[C@@H](CC(N)=O)C(=O)N[C@@H](CO)C(=O)N[C@@H](CCSC)C(=O)N[C@@H](CCC(=O)O)C(=O)N[C@@H](CCCN=C(N)N)C(=O)N[C@H](C(=O)N[C@@H](CCC(=O)O)C(=O)N[C@@H](Cc1c[nH]c2ccccc12)C(=O)N[C@@H](CC(C)C)C(=O)N[C@@H](CCCN=C(N)N)C(=O)N[C@@H](CCCCN)C(=O)N[C@@H](CCCCN)C(=O)N[C@@H](CC(C)C)C(=O)N[C@@H](CCC(N)=O)C(=O)N[C@@H](CC(=O)O)C(=O)N[C@H](C(=O)N[C@@H](Cc1cnc[nH]1)C(=O)N[C@@H](CC(N)=O)C(=O)N[C@@H](Cc1ccccc1)C(=O)O)C(C)C)C(C)C [PTH (1-34), teriparatide]
- phosphorylation of CREB (Western blot) (NP cells [1]; at 30 min): induced phosphorylation of CREB
- PTH-enhanced phosphorylation of CREB (NP cells [1]; knockdown of pallidin with siRNA): blocked
- IVD height (18-month-old mice; [4]): increased
- IVD volume (18-month-old mice; [4]): increased
- bone volume (BV/TV) (18-month-old mice; [5]): increase
- connectivity (Tb. Con) (18-month-old mice; [5]): increase
- IVD thickness in 3D images in five different areas (18-month-old mice; 18-month-old mice, especially the central area of IVD): significant increase
- IVD morphology (18-month-old mice; 40 μg/kg daily for eight weeks): significantly improved
- IVD morphology (18-month-old mice; 80 μg/kg daily for eight weeks): significantly improved
- protein level of β6 integrin (integrin β6): significantly stimulated
- levels of CREB phosphorylation by PTH (NP cells [2]; IFT88-/- NP cells (disruption of primary cilia)): significantly reduced
- phosphorylation of CREB (Western blot) (NP cells [2]; NP cells of wild-type mice): significantly stimulated
- time at which cAMP level in NP cells peaked (NP cells [3]): 30 min
